In patent US7045311B2, “Whole cell assay systems for cell surface proteases” (Monogram Biosciences, Inc., priority 2001, dated 2006):
Entries after “also recorded” stand apart in the source; their conditions may differ.

Assays:
Assay type in all cases: cell-based
ADAM 17 = target: T1, ADAM 17 (Homo sapiens, UniProt P78536); assay: Whole cell ADAM 17 assay: cleavage of TNF-α-FL by THP-1 cells, capillary electrophoresis; settings: for formation of TNF-α-FL cleavage product (ADAM 17 activity): TNF-α-FL substrate, reagent added to the assay
T1 construct: endogenous in cells; host or cells: THP-1 cells (whole, live)
Method: A substrate for a cell surface protease, typically an ADAM, or preferably a plurality of substrates for different proteases, each having a distinct detectable label, is added to a live cell suspension in a buffer. Typically, about 1.5×10^5 cells are used in 50 μL medium. […] The cells are washed three times on ice with buffer (lacking the protein and anti-proteases noted below) before use. A suitable buffer consists of 50 mM HEPES (pH 7.2), 150 mM NaCl, 2 mM MgCl2, 0.1% human serum albumin (HSA), with serine and thiol protease inhibitor cocktail (Roche Diagnostics). Depending on the peptide, nonspecific binding may be blocked by addition of a protein selected from human serum albumin (HSA), bovine serum albumin (BSA), casein (CAS), gamma globulins (GG), and fetal bovine serum (FBS).
All component additions are done on ice, and the tubes are then transferred to a temperature controlled water bath for incubation. The assay mixture is incubated at a fixed temperature for a fixed time, e.g., 37° C. for 1 hr. Following incubation, the tubes are removed from the incubator and placed again on ice.
For experiments employing additional reagents, such as a GPCR agonist or a protein kinase C stimulator such as PMA (phorbol myristate acetate), the additional reagent is added at the beginning of the incubation period.
A suitable separation medium consists of 1% PEO in 50 mM HEPES (pH 7.2). […] In a typical separation, detection occurs at 5 mm down from the injection site (cross), an argon-ion laser is used as the excitation source, PMT is typically set at 600V to 900V, and gain is set to 5 μA/V at a frequency of 10 Hz. The 10× objective is used, and the sampling rate is 200/sec. Well volumes are typically 2 μL.
For peak analysis, time normalized peak areas for peptide cleavage products are divided by time normalized fluorescein (or aminomethyl fluorescein) peak areas to arrive at the product/fluorescein normalized area ratios.
A TNF-α peptide fragment, known to be a substrate for ADAM 17, was labeled at the N-terminus with fluorescein. […] After a one-hour incubation, aminomethyl fluorescein was added as an electrophoretic marker, and the reaction supernatant was separated by capillary electrophoresis.

ADAM 10 [1] = assay: Whole cell ADAM 10 assay: cleavage of CD40L-FL by Rat-1 cells with GPCR ligands; settings: CD40L-FL substrate
Method: (§1) For experiments involving GPCR's, adherent cells are plated into 96-well plates at 5×10^4 cells/well and serum starved for 18–24 hr prior to use. A suitable buffer comprises 10 mM HEPES (pH 7.2), 1× HANKS, 0.1% human serum albumin (HSA), and serine/thiol protease inhibitor cocktail (Roche Diagnostics). Cells are washed three times with the HANKS-HEPES buffer, lacking protein and anti-protease, prior to use.
(§2) The products of the assays are conveniently analyzed by capillary electrophoresis on a microfluidic LabCard™ (ACLARA Biosciences, Inc.). Typically, a LabCard™ containing a 64-channel array is used, but no special changes are needed to run the assay on a 96- or 32-channel card, or other configuration.
(§3) The configuration of channels for each separation on a LabCard is shown schematically in FIG. 13. The channel network may be a double-T network as shown or a cross network, i.e. where wells 110 and 114 in the figure are directly opposed. A suitable separation medium consists of 1% PEO in 50 mM HEPES (pH 7.2). In a typical separation, sample is injected from well 110 to well 114 at an injection voltage of 550V for e.g. 35 sec. Separation is carried out from well 104 to well 106 for e.g. 20 sec., with the voltages of 0V, 380V, 800V, and 380V in wells 104, 110, 106, and 114, respectively, resulting in a field strength of 455V/cm. […]

ADAM 10 [2] = assay: Whole cell ADAM 10 assay in HEK-293 cells
Method: as §1, §2, §3

T1 sequence (P78536 215-824): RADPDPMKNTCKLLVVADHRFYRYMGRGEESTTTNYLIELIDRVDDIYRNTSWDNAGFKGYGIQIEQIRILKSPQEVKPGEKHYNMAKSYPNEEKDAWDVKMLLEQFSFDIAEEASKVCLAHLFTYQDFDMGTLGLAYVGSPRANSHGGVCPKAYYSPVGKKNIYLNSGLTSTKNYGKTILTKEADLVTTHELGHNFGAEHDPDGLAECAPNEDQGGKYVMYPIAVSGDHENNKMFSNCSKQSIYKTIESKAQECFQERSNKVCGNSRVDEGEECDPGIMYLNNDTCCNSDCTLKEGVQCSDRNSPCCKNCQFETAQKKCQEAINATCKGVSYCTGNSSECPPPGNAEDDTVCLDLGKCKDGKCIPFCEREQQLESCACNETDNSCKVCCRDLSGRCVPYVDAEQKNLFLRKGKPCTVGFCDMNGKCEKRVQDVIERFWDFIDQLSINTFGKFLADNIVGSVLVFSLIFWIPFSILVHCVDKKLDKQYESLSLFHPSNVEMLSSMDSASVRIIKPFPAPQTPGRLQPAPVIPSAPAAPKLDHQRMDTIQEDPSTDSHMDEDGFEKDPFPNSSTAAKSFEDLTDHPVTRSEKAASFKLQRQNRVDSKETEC

Row | Compound | ADAM 10 activity (amount of CD40L-FL cleavage product) (ADAM 10 [1]) | formation of TNF-α-FL cleavage product (ADAM 17 activity) (ADAM 17) | ADAM 10 activity (ADAM 10 [2]) | other results
1 | OC[C@H]1O[C@@](CO)(O[C@H]2O[C@H](CO)[C@@H](O)[C@H](O)[C@H]2O)[C@@H](O)[C@@H]1O [sucrose] |  |  |  | TNF-α-FL cleavage activity on addition of sucrose in the presence of PMA (ADAM 17; 450 mM sucrose with PMA): restored the activity
2 | endothelin-1: known ligand for GPCRs (CSCSSLMDKECVYFCHLDIIW) | decreased |  |  | 
3 | CNC(=O)[C@H](Cc1c[nH]c2ccccc12)NC(=O)[C@@H](CC(=O)NO)CC(C)C [GM6001] |  | completely inhibited |  | 
4 | lysophosphatidic acid [LPA] | increased |  |  | 
5 | C[N+](C)(C)CCOC(N)=O [carbachol] |  |  | activated | 
6 | CCCCCCCCCCCCCC(=O)O[C@@H]1[C@@H](C)[C@@]2(O)[C@@H](C=C(CO)C[C@]3(O)C(=O)C(C)=C[C@@H]23)[C@@H]2C(C)(C)[C@]12OC(C)=O [PMA, phorbol myristate acetate] |  | significantly lower; also recorded: significantly reduced | decline | 
